Laboratory results published in the NIST ThermoML archive (doi:10.1016/j.jct.2019.05.015).
Several values for one entry are separate records, joined by “and”; a condition that tells them apart may be missing. Equal entries are not always repeated.

Legend:
[1] = molar heat capacity at constant pressure; details: 101.33 kPa, DSC
[2] = for Normal melting temperature: Crystal, DTA; for Glass transition temperature: DSC
[3] = Molar enthalpy of transition or fusion; details: Crystal; DSC

Nc1cccc(N)c1 [1,3-benzenediamine]
[1]
Details	molar heat capacity at constant pressure [J/K/mol]
223 K, Crystal	108.9
243 K, Crystal	121.4
253 K, Metastable liquid	207.5
263 K, Crystal	133.8
273 K, Metastable liquid	213.4
283 K, Crystal	146.2
293 K, Metastable liquid	219.3
303 K, Crystal	158.7
313 K, Metastable liquid	225.2
323 K, Metastable liquid	229.7
333 K, Metastable liquid	231.2
343 K, Liquid	234
353 K, Liquid	237.1
363 K, Liquid	240.2

Details	Glass transition temperature [°C]	Molar enthalpy of transition or fusion [kcal/mol]	Normal melting temperature [°C]
[2]	-29	–	63.0
[3]	–	3.71	–

Oc1cccc(O)c1 [1,3-benzenediol]
molar heat capacity at constant pressure [J/K/mol], [1]
Details	233 K	253 K	273 K	293 K	303 K	313 K	323 K	333 K	343 K	363 K
Crystal	103.9	114.4	124.9	135.3	–	145.8	–	156.3	–	–
Metastable liquid	–	–	–	–	237.2	–	245.8	–	254.3	262.9

Details	Molar enthalpy of transition or fusion [kcal/mol]	Normal melting temperature [°C]
[2]	–	109.1
[3]	4.82	–

Oc1ccc2c(O)cccc2c1 [1,6-dihydroxynaphthalene]
[1]
Details	molar heat capacity at constant pressure
218 K, Glass	131.4 J/K/mol
238 K, Glass	147.4 J/K/mol
243 K, Crystal	149.1 J/K/mol
258 K, Glass	163.5 J/K/mol
263 K, Crystal	161.4 J/K/mol
283 K, Crystal	173.7 J/K/mol
303 K, Crystal	186 J/K/mol
323 K, Crystal	197.9 J/K/mol and 198.4 J/K/mol
323 K, Metastable liquid	311.2 J/K/mol
343 K, Crystal	210.6 J/K/mol and 210.7 J/K/mol
343 K, Metastable liquid	315.6 J/K/mol
363 K, Crystal	223.2 J/K/mol and 223 J/K/mol
363 K, Metastable liquid	319.9 J/K/mol
383 K, Crystal	235.9 J/K/mol
383 K, Metastable liquid	324.3 J/K/mol
403 K, Metastable liquid	328.7 J/K/mol

Details	Glass transition temperature [°C]	Molar enthalpy of transition or fusion [kcal/mol]	Normal melting temperature [°C]
[2]	32	–	137.1
[3]	–	6.17	–

Nc1cccc2ccccc12 [1-naphthalenamine]
Details	Molar enthalpy of transition or fusion [kcal/mol]	Normal melting temperature [°C]
[2]	–	48.2
[3]	3.46	–

Oc1cccc2ccccc12 [1-naphthol]
Details	Molar enthalpy of transition or fusion [kcal/mol]	Normal melting temperature [°C]
[2]	–	94.8
[3]	5.23	–

Oc1ccc2ccccc2c1 [2-hydroxynaphthalene]
Details	Molar enthalpy of transition or fusion [kcal/mol]	Normal melting temperature [°C]
[2]	–	121.2
[3]	5.35	–

Nc1ccc2ccccc2c1 [2-naphthalenamine]
Details	Molar enthalpy of transition or fusion [kcal/mol]	Normal melting temperature [°C]
[2]	–	109.5
[3]	5.32	–

Nc1ccc(Cl)cc1 [4-chlorobenzenamine]
Details	Molar enthalpy of transition or fusion [kcal/mol]	Normal melting temperature [°C]
[2]	–	70
[3]	4.71	–

Cc1ccc(O)cc1 [4-methylphenol]
Details	Molar enthalpy of transition or fusion [kcal/mol]	Normal melting temperature [°C]
[2]	–	34.8
[3]	2.81	–
